According to patent publication US11554171B2, “Compounds and methods for the targeted degradation of bromodomain-containing proteins” (Arvinas Operations, Inc., priority 2015, dated 2023):

System: c-myc in 22RV-1 cells
Assay: Human c-myc ELISA assay
Type: cell-based
Details: Homo sapiens; for Emax: 22Rv1, 18 h, read-out: Degradation of BRD4: Maximum inhibition (%) c-Myc ELISA in 22RV1 cells; for DC50: 22Rv1, read-out: Degradation of BRD4: DC50 (uM) c-Myc ELISA in 22RV1 cells
Outline: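 22RV-1 cells treated 18 h with 8-point 1:3 compound dilutions (final top 300 nM or 1 μM, 0.1% DMSO). Cells lysed in RIPA buffer with protease/phosphatase inhibitors, and c-myc protein in cleared lysate quantified by ELISA against a standard curve. DC50 reported for c-myc suppression.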

SMILES | DC50 | Emax
Cc1ncsc1-c1ccc(CNC(=O)[C@@H]2C[C@@H](O)CN2C(=O)[C@@H](NC(=O)COCCOCCOCCCCNC(=O)C[C@@H]2N=C(c3ccc(Cl)cc3)c3c(sc(C)c3C)-n3c(C)nnc32)C(C)(C)C)cc1 [Example 51, (2S,4R)-1-[(2S)-2-(2-{2-[2-(4-{2-[(9S)-7-(4-chlorophenyl)-4,5,13-trimethyl-3-thia-1,8,11,12-tetraazatricyclo[8.3.0.0^2,^6]trideca-2(6),4,7,10,12-pentaen-9-yl]acetamido}butoxy)ethoxy]ethoxy}acetamido)-3,3-dimethylbutanoyl]-4-hydroxy-N-{[4-(4-methyl-1,3-thiazol-5-yl)phenyl]methyl}pyrrolidine-2-carboxamide] | < 0.01 µM | 97%
Cc1ncsc1-c1ccc(CNC(=O)[C@@H]2C[C@@H](O)CN2C(=O)[C@@H](NC(=O)COCCN2CCC(c3ccc([C@H](C)NC(=O)C[C@@H]4N=C(c5ccc(Cl)cc5)c5c(sc(C)c5C)-n5c(C)nnc54)cc3)CC2)C(C)(C)C)cc1 [Example 52] | 0.1 to 1 µM | 93%
Cc1ncsc1-c1ccc(CNC(=O)[C@@H]2C[C@@H](O)CN2C(=O)[C@@H](NC(=O)COCCCOCCCOc2ccc(NC(=O)C[C@@H]3N=C(c4ccc(Cl)cc4)c4c(sc(C)c4C)-n4cnnc43)cc2)C(C)(C)C)cc1 [Example 53] | > 1 µM | 56%
Cc1ncsc1-c1ccc(CNC(=O)[C@@H]2C[C@@H](O)CN2C(=O)[C@@H](NC(=O)COCCCOCCCOc2ccc(NC(=O)C[C@@H]3N=C(c4ccc(Cl)cc4)c4c(sc(C)c4C)-n4c(C(C)C)nnc43)cc2)C(C)(C)C)cc1 [Example 54] | > 1 µM | 63%
Cc1ncsc1-c1ccc(CNC(=O)[C@@H]2C[C@@H](O)CN2C(=O)[C@@H](NC(=O)COCCN2CCC(c3ccc([C@@H](C)NC(=O)C[C@@H]4N=C(c5ccc(Cl)cc5)c5c(sc(C)c5C)-n5c(C)nnc54)cc3)CC2)C(C)(C)C)cc1 [Example 57] | 0.1 to 1 µM | 94%
Cc1ncsc1-c1ccc(CNC(=O)[C@@H]2C[C@@H](O)CN2C(=O)[C@@H](NC(=O)COCCN2CCN(c3ccc([C@H](C)NC(=O)C[C@@H]4N=C(c5ccc(Cl)cc5)c5c(sc(C)c5C)-n5c(C)nnc54)cc3)CC2)C(C)(C)C)cc1 [Example 58, (2S,4R)-1-[(2S)-2-{2-[2-(4-{4-[(1S)-1-{2-[(9S)-7-(4-chlorophenyl)-4,5,13-trimethyl-3-thia-1,8,11,12-tetraazatricyclo[8.3.0.0^2,^6]trideca-2(6),4,7,10,12-pentaen-9-yl]acetamido}ethyl]phenyl}piperazin-1-yl)ethoxy]acetamido}-3,3-dimethylbutanoyl]-4-hydroxy-N-{[4-(4-methyl-1,3-thiazol-5-yl)phenyl]methyl}pyrrolidine-2-carboxamide] | 0.1 to 1 µM | 88%
Cc1ncsc1-c1ccc(CNC(=O)[C@@H]2C[C@@H](O)CN2C(=O)[C@@H](NC(=O)COCCN2CCN(c3ccc([C@@H](C)NC(=O)C[C@@H]4N=C(c5ccc(Cl)cc5)c5c(sc(C)c5C)-n5c(C)nnc54)cc3)CC2)C(C)(C)C)cc1 [Example 59] | 0.1 to 1 µM | 95%
Cc1ncsc1-c1ccc(CNC(=O)[C@@H]2C[C@@H](O)CN2C(=O)[C@@H](NC(=O)COCCN2CCN(c3ccc(CNC(=O)C[C@@H]4N=C(c5ccc(Cl)cc5)c5c(sc(C)c5C)-n5c(C)nnc54)cc3)CC2)C(C)(C)C)cc1 [Example 60] | 0.1 to 1 µM | 91%
Cc1ncsc1-c1ccc(CNC(=O)[C@@H]2C[C@@H](O)CN2C(=O)[C@@H](NC(=O)Cc2cccc(CCCCNC(=O)C[C@@H]3N=C(c4ccc(Cl)cc4)c4c(sc(C)c4C)-n4c(C)nnc43)c2)C(C)(C)C)cc1 [Example 70, (2S,4R)-1-[(2S)-2-{2-[3-(4-{2-[(9S)-7-(4-chlorophenyl)-4,5,13-trimethyl-3-thia-1,8,11,12-tetraazatricyclo[8.3.0.0^2,^6]trideca-2(6),4,7,10,12-pentaen-9-yl]acetamido}butyl)phenyl]acetamido}-3,3-dimethylbutanoyl]-4-hydroxy-N-{[4-(4-methyl-1,3-thiazol-5-yl)phenyl]methyl}pyrrolidine-2-carboxamide] | 0.01 to 0.1 µM | 88.8%
Cc1ncsc1-c1ccc([C@H](C)NC(=O)[C@@H]2C[C@H](O)CN2C(=O)[C@@H](NC(=O)COCCCOCCNC(=O)C[C@@H]2N=C(c3ccc(Cl)cc3)c3c(sc(C)c3C)-n3c(C)nnc32)C(C)(C)C)cc1 [Example 71] | > 1 µM | 11.2%
Cc1ncsc1-c1ccc([C@H](C)NC(=O)[C@H]2C[C@H](O)CN2C(=O)[C@@H](NC(=O)COCCCOCCNC(=O)C[C@@H]2N=C(c3ccc(Cl)cc3)c3c(sc(C)c3C)-n3c(C)nnc32)C(C)(C)C)cc1 [Example 72, (2R, 4S)-1-[(2S)-2-{2-[3-(2-{2-[(9S)-7-(4-chlorophenyl)-4,5,13-trimethyl-3-thia-1,8,11,12-tetraazatricyclo[8.3.0.0^2,^6]trideca-2(6),4,7,10,12-pentaen-9-yl]acetamido}ethoxy)propoxy]acetamido}-3,3-dimethylbutanoyl]-4-hydroxy-N-[(1S)-1-[4-(4-methyl-1,3-thiazol-5-yl)phenyl]ethyl]pyrrolidine-2-carboxamide] | > 1 µM | 10.2%
Cc1ncsc1-c1ccc(CNC(=O)[C@@H]2C[C@H](O)CN2C(=O)[C@@H](NC(=O)COCCCOCCNC(=O)C[C@@H]2N=C(c3ccc(Cl)cc3)c3c(sc(C)c3C)-n3c(C)nnc32)C(C)(C)C)cc1 [Example 73] | > 1 µM | 21.4%
Cc1ncoc1-c1ccc(CNC(=O)[C@@H]2C[C@@H](O)CN2C(=O)[C@@H](NC(=O)COCCCOCCNC(=O)C[C@@H]2N=C(c3ccc(Cl)cc3)c3c(sc(C)c3C)-n3c(C)nnc32)C(C)(C)C)cc1 [Example 74] | 0.01 to 0.1 µM | 97%
Cc1sc2c(c1C)C(c1ccc(Cl)cc1)=N[C@@H](CC(=O)NCCOCCCOCC(=O)N[C@H](C(=O)N1C[C@H](O)C[C@H]1C(=O)NCc1ccc(C#N)cc1)C(C)(C)C)c1nnc(C)n1-2 [Example 75] | 0.1 to 1 µM | 58.5%

Second part, led by results:

DC50 | SMILES | Emax
< 0.01 µM | Cc1ncsc1-c1ccc(CNC(=O)[C@@H]2C[C@@H](O)CN2C(=O)[C@@H](NC(=O)COCCCOCCCOc2ccc(NC(=O)C[C@@H]3N=C(c4ccccc4)c4c(sc(C)c4C)-n4c(C)nnc43)cc2)C(C)(C)C)cc1 [Example 55, (2S,4R)-1-[(2S)-3,3-dimethyl-2-(2-{3-[3-(4-{2-[(9S)-4,5,13-trimethyl-7-phenyl-3-thia-1,8,11,12-tetraazatricyclo[8.3.0.0^2,^6]trideca-2(6),4,7,10,12-pentaen-9-yl]acetamido}phenoxy)propoxy]propoxy}acetamido)butanoyl]-4-hydroxy-N-{[4-(4-methyl-1,3-thiazol-5-yl)phenyl]methyl}pyrrolidine-2-carboxamide] | 100%
0.01 to 0.1 µM | Cc1ncsc1-c1ccc(CNC(=O)[C@@H]2C[C@@H](O)CN2C(=O)[C@@H](NC(=O)Cc2cccc(OCCCNC(=O)C[C@@H]3N=C(c4ccc(Cl)cc4)c4c(sc(C)c4C)-n4c(C)nnc43)c2)C(C)(C)C)cc1 [Example 61, (2S,4R)-1-[(2S)-2-{2-[3-(3-{2-[(9S)-7-(4-chlorophenyl)-4,5,13-trimethyl-3-thia-1,8,11,12-tetraazatricyclo[8.3.0.0^2,^6]trideca-2(6),4,7,10,12-pentaen-9-yl]acetamido}propoxy)phenyl]acetamido}-3,3-dimethylbutanoyl]-4-hydroxy-N-{[4-(4-methyl-1,3-thiazol-5-yl)phenyl]methyl}pyrrolidine-2-carboxamide] | 96%
0.01 to 0.1 µM | Cc1ncsc1-c1ccc(CNC(=O)[C@@H]2C[C@@H](O)CN2C(=O)[C@@H](NC(=O)COCCCOCCCOc2ccc(NC(=O)C[C@@H]3N=C(c4ccc(Br)cc4)c4c(sc(C)c4C)-n4c(C)nnc43)cc2)C(C)(C)C)cc1 [Example 62] | 98.5%
0.01 to 0.1 µM | C=Cc1ccc(C2=N[C@@H](CC(=O)Nc3ccc(OCCCOCCCOCC(=O)N[C@H](C(=O)N4C[C@H](O)C[C@H]4C(=O)NCc4ccc(-c5scnc5C)cc4)C(C)(C)C)cc3)c3nnc(C)n3-c3sc(C)c(C)c32)cc1 [Example 63] | 98.5%
0.01 to 0.1 µM | CCc1ccc(C2=N[C@@H](CC(=O)Nc3ccc(OCCCOCCCOCC(=O)N[C@H](C(=O)N4C[C@H](O)C[C@H]4C(=O)NCc4ccc(-c5scnc5C)cc4)C(C)(C)C)cc3)c3nnc(C)n3-c3sc(C)c(C)c32)cc1 [Example 64, (2S,4R)-1-[(2S)-2-(2-{3-[3-(4-{2-[(9S)-7-(4-ethylphenyl)-4,5,13-trimethyl-3-thia-1,8,11,12-tetraazatricyclo[8.3.0.0^2,^6]trideca-2(6),4,7,10,12-pentaen-9-yl]acetamido}phenoxy)propoxy]propoxy}acetamido)-3,3-dimethylbutanoyl]-4-hydroxy-N-{[4-(4-methyl-1,3-thiazol-5-yl)phenyl]methyl}pyrrolidine-2-carboxamide] | 96.5%
0.01 to 0.1 µM | Cc1ncsc1-c1ccc(CNC(=O)[C@@H]2C[C@@H](O)CN2C(=O)[C@@H](NC(=O)COCCCOc2ccc([C@@H](C)NC(=O)C[C@@H]3N=C(c4ccc(Cl)cc4)c4c(sc(C)c4C)-n4c(C)nnc43)cc2)C(C)(C)C)cc1 [Example 65] | 95.4%
0.01 to 0.1 µM | Cc1ncsc1-c1ccc(CNC(=O)[C@@H]2C[C@@H](O)CC2C(=O)[C@@H](NC(=O)CO[C@H]2CCN(c3ccc([C@@H](C)NC(=O)C[C@@H]4N=C(c5ccc(Cl)cc5)c5c(sc(C)c5C)-n5c(C)nnc54)cc3)C2)C(C)(C)C)cc1 (stereo partly shown) [Example 66] | 89.4%
0.01 to 0.1 µM | Cc1ncsc1-c1ccc(CNC(=O)[C@@H]2C[C@@H](O)CN2C(=O)[C@@H](NC(=O)CCCCCCCCNC(=O)C[C@@H]2N=C(c3ccc(Cl)cc3)c3c(sc(C)c3C)-n3c(C)nnc32)C(C)(C)C)cc1 [Example 68] | 95.4%
0.01 to 0.1 µM | Cc1ncsc1-c1ccc(CNC(=O)[C@@H]2C[C@@H](O)CN2C(=O)[C@@H](NC(=O)COCCc2cccc(CNC(=O)C[C@@H]3N=C(c4ccc(Cl)cc4)c4c(sc(C)c4C)-n4c(C)nnc43)c2)C(C)(C)C)cc1 [Example 69] | 93.4%
